≈ marks a conversion by molar mass, not a printed value. Like-named read-outs stand apart in the source and are kept apart here.
Key:
[1] = test system: HIV (HIV-1IIIB strain); assay: Antiviral activity: inhibition of HIV cytotoxicity in MT-4 cells (MTT); format: cell-based; details: Human immunodeficiency virus 1, MT4, 120 h, read-out: EC50: concentration of the compound that achieved 50% inhibition of cytotoxicity by the virus
Protocol: (§1) (A) A human T-cell strain MOLT-4 clone 8, persistently infected with HIV (HIV-1IIIB strain), was cultured in RPMI-1640 medium supplemented with 10% fetal bovine serum. The culture supernatant was then filtered and stored at -80° C. after a measurement of viral titer. Each of test compounds was diluted with the above culture medium so as to be a predetermined concentration, and 50 μl of the solution was added to each of wells of a 96-well microtiter plate. Then, after the addition of each 100 μl of MT-4 cell suspension (3.5×10^4 cells) to the well, the above-prepared HIV-containing supernatant was diluted with the above medium and 50μl of the dilution (60 plaque forming units) was added to each well.
(§2) (B) After incubation of the 96-well microtiter plate in a CO2 -incubator at 37° C. for 5 days, 30 μl of MTT [3-(4,5-dimethylthiazole-2-yl)-2,5-diphenyltetrazorium bromide, 5 mg/ml, PBS] was added to each well and incubation was continued for 1 hour.
(§3) Cells having survived reduced MTT to precipitate formazan. 150 μl of culture supernatant was removed from each well and 150 μl of a solubilizing solution (10% Triton X-100 and isopropanol supplemented with 0.4% (V/V) HCl) was added to each well and the plate was shaken by using a plate mixer to dissolve the formazan. The dissolved formazan was measured by O.D. at 540 nm and the results were compared with referenced control. EC50 (μg/ml) was defined as a concentration of the compound that achieved 50% inhibition of cytotoxicity by the virus. DMSO was used as a solvent and the tested concentrations were 0.0001-10 μg/ml.

[2] = Cytotoxicity against MT-4 cells (MTT); format: cell-based; details: human
Protocol: as §1, §2, §3
Cytotoxicities of the test compounds against the MT-4 cells were measured in the same manner as step (A) of the above-described antiviral activity test, provided that 50 μl of the culture medium was added to each well instead of the HIV-containing supernatant (virus solution), which was followed by the same treatment as step (B). CC50 (μg/ml) was defined as a concentration of test compound inducing 50% cytotoxicity.

[3] = MT-4 cells, no virus, 5 days at 37° C., MTT, read-out: CC50: concentration of test compound inducing 50% cytotoxicity

Compound	EC50 [1] [µg/mL]	CC50 at 120 h [2, 3] [µg/mL]	CC50 at 120 h ([2]; mt-4 cells) [µg/mL]
CCCCCCCCCCc1ccc2c(c1)N(C)[C@@H](C(C)C)C(=O)N[C@H](CO)C2 (relative stereo) [(±)-BL-V8-310]	0.001 to 0.01 (≈ 0.00248 to 0.0248 µM)	1 (≈ 2.48 µM)	–
CCCCCCCCCCc1ccc2c(c1)N(C)[C@@H](C(C)C)C(=O)N[C@@H](CO)C2 (relative stereo) [(±)-epi-BL-V8-310]	0.13 (≈ 0.323 µM)	1 (≈ 2.48 µM)	–
CC(C)[C@H]1C(=O)N[C@H](CO)Cc2cc3c(cc2N1C)C(C)(C)CCC3(C)C (relative stereo) [BL-V8-23T]	–	1 to 10 (≈ 2.68 to 26.8 µM)	–
CC(C)[C@H]1C(=O)N[C@H](CO)Cc2ccccc2N1C (relative stereo) [BL-V8]	0.1 to 1 (≈ 0.381 to 3.81 µM)	10 (≈ 38.1 µM)	–
CCCCCCCCCCc1ccc2c(c1)N(C)[C@@H](C(C)C)C(=O)N[C@H](CO)CC2 (relative stereo) [BL-V9-310]	2.5 to 5 (≈ 6 to 12 µM)	10 (≈ 24 µM)	–
CC(C)[C@H]1C(=O)N[C@H](CO)CCc2ccccc2N1C (relative stereo) [BL-V9]	> 10	> 10	–
CC(C)[C@H]1C(=O)N[C@H](CO)CCCc2ccccc2N1C (relative stereo) [BL-V10]	> 10	–	> 10
CC(C)[C@@H]1C(=O)N[C@H](CO)Cc2cc3c(cc2N1C)C(C)(C)CCC3(C)C (relative stereo) [epi-BL-V8-23T]	–	1 to 10 (≈ 2.68 to 26.8 µM)	–
CC(C)[C@H]1C(=O)N[C@@H](CO)Cc2ccccc2N1C (relative stereo) [epi-BL-V8]	2.5 to 5 (≈ 9.53 to 19.1 µM)	10 (≈ 38.1 µM)	–
CCCCCCCCCCc1ccc2c(c1)N(C)[C@H](C(C)C)C(=O)N[C@H](CO)CC2 (relative stereo) [epi-BL-V9-310]	0.3 (≈ 0.72 µM)	5 to 10 (≈ 12 to 24 µM)	–
CC(C)[C@H]1C(=O)N[C@@H](CO)CCc2ccccc2N1C (relative stereo) [epi-BL-V9]	> 10	> 10	–
CC(C)[C@H]1C(=O)N[C@@H](CO)CCCc2ccccc2N1C (relative stereo) [epi-BL-V10]	> 10	–	> 10
CCCCCCCCCCc1ccc2c(c1)N(C)[C@H](C(C)C)C(=O)N[C@@H](CO)C2 [(+)-BL-V8-310]	0.05 to 0.1 (≈ 0.124 to 0.248 µM)	5 to 10 (≈ 12.4 to 24.8 µM)	–
CCCCCCCCCCc1ccc2c(c1)N(C)[C@H](C(C)C)C(=O)N[C@H](CO)C2 [(+)-epi-BL-V8-310]	0.1 (≈ 0.248 µM)	5 to 10 (≈ 12.4 to 24.8 µM)	–
CCCCCCCCCCc1ccc2c(c1)N(C)[C@@H](C(C)C)C(=O)N[C@H](CO)C2 [(-)-BL-V8-310]	0.003 (≈ 0.00745 µM)	5 to 10 (≈ 12.4 to 24.8 µM)	–
CCCCCCCCCCc1ccc2c(c1)N(C)[C@@H](C(C)C)C(=O)N[C@@H](CO)C2 [(-)-epi-BL-V8-310]	0.16 (≈ 0.397 µM)	2.5 to 5 (≈ 6.21 to 12.4 µM)	–

Source: patent US5652232A, “Benzolactam derivatives” (Shionogi & Co., Ltd., priority 1993, dated 1997)
